From patent US6492365B1, “Microsomal triglyceride transfer protein” (Bristol-Myers Squibb Company, priority 1992, dated 2002)
Where a name gives a salt, the structure may show the parent alone.

Target: T1, bovine MTP (Bos taurus, UniProt P55156)
T1 construct: with about 50-200 ng purified MTP in the well of a 96-well plate; from tissue; host or cells: bovine liver
T1 sequence (P55156 12-887): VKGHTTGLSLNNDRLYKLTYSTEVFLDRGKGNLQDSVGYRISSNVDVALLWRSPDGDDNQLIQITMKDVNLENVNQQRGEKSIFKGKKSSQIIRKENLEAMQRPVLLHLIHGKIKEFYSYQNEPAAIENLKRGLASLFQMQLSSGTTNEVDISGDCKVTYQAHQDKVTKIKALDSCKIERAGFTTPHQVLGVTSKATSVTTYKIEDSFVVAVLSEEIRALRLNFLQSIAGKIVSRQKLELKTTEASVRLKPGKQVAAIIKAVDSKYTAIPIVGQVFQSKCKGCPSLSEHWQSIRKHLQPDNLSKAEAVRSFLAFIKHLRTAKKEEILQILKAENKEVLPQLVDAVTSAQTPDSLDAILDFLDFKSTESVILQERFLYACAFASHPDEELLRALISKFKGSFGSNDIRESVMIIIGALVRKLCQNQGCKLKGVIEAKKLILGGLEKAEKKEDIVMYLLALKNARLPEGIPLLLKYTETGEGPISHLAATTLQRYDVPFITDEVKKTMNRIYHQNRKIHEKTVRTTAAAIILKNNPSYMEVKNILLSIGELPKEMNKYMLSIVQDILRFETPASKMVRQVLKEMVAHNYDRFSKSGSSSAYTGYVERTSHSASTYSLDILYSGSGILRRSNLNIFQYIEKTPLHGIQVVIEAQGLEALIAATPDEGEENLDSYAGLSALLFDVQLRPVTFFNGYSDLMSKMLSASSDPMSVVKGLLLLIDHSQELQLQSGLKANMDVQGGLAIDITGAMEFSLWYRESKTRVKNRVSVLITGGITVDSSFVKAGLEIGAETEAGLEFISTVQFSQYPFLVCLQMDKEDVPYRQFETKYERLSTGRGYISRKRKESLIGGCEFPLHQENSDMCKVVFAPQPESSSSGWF
T1 sequence (P05307 21-510 partner): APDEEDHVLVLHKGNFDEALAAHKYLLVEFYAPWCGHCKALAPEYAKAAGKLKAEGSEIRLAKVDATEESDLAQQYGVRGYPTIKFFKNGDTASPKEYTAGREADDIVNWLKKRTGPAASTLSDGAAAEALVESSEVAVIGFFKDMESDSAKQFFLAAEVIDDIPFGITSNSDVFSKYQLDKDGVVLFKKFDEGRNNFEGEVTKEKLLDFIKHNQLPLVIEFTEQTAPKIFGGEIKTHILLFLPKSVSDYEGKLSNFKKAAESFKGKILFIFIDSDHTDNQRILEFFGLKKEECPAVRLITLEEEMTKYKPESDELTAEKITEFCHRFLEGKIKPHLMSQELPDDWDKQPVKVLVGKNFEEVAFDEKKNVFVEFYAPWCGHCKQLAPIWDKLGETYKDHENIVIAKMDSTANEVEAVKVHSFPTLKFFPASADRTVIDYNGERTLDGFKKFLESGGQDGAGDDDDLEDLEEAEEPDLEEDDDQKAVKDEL
Experiment: MTP-catalyzed transport of radiolabeled TG from donor SUV to acceptor SUV
Assay type: biochemical
Details: for IC50: 30 minutes at 37° C., read-out: IC50 for inhibition of MTP-catalyzed TG transport from donor SUV to acceptor SUV
Experimental: (§1) Compound A was dissolved in DMSO and then diluted into 15/40 buffer. Aliquots were added to a lipid transfer assay to bring the compound to the indicated final concentrations. DMSO concentration in the assay never exceeded 2 μL/600 μL, a concentration that was independently determined to have minimal effect on the assay. MTP-catalyzed lipid transport was measured for 30 minutes at 37° C. TG transfer was calculated and compared to a control assay without inhibitor.
as §1, with “Compound B” for “Compound A”
TG transfer activity was measured as the protein-stimulated rate of TG transfer from donor SUV to acceptor SUV. To prepare donor and acceptor vesicles, the appropriate lipids in chloroform were mixed in a 16×125 mm borosilicate glass screw cap tube (Fisher Scientific Co., Pittsburg, Pa., Cat. no. 14-933-1A) and then dried under a stream of nitrogen. Two mL 15/40 buffer (15 mM Tris, pH 7.4, 40 mM sodium chloride, 1 mM EDTA, and 0.02% NaN3) were added to the dried lipids (or 100 μL per assay, which ever is the least volume), a stream of nitrogen was blown over the buffer, then the cap was quickly screwed on to trap a nitrogen atmosphere over the lipid suspension. […]
The ^14C-TG and ^3H-PC remaining in the supernatant were quantitated by scintillation counting. TG transfer was calculated by comparing the ratio of ^14C-TG (transferred from the donor membranes to the acceptor membranes) to ^3H-PC (a marker of acceptor vesicle recovery) present in the supernatant following a transfer reaction to the ratio of total donor ^14C-TG to acceptor [^3H]PC in the assay before the transfer reaction. The percentage of ^14C-TG transfer was calculated as follows: [formula] […]

IC50 [nM] | decrease of TG transfer (at concentrations that inhibited approximately 40% of PC transfer) | Structure (SMILES)
~1000 | more than 80% | O=C1c2ccccc2CN1C1CCN(CCC(c2ccccc2)c2ccccc2)CC1 [compound A, 2-[1-(3,3-diphenylpropyl)-4-piperdinyl]-2,3-dihydro-3-oxo-1H-isoindole hydrochloride]
4000 to 6000 | – | COc1ccccc1N1CCN(CC2CC(=O)c3ccc(F)cc3C2)CC1 (stereo not drawn) [compound B, 1-[3-(6-fluoro-1-tetralanyl)methyl]-4-O-methoxyphenyl piperazine]
